Measurements: ChEMBL document CHEMBL2375319, “Design, synthesis and structure-activity relationships of 3,5-diaryl-1H-pyrazoles as inhibitors of arylamine N-acetyltransferase” (Bioorg Med Chem Lett, 2013)
Values after ≈ are worked out from the molar mass of the structure shown.

System: Mycobacterium tuberculosis
Experiment: Antimycobacterial activity against Mycobacterium bovis BCG after 28 days
Assay type: functional
Details: variant bovis BCG, 672 h

SMILES: COc1ccc(-c2cc(-c3cc(OC)ccc3O)[nH]n2)cc1
- MIC: 34 µM (≈ 10.1 µg/mL)
